Assay: Tadalafil blood levels by HPLC/tandem MS in BMD patients
Type: in vivo, human
Procedure: The order of tadalafil/placebo was random. The research pharmacist placed tadalafil tablets or lactose powder (placebo) in opaque capsules to blind patients and investigators, both for the test dose and study dose of drug or placebo. Patients were queried about potential tadalafil-specific side-effects both for safety monitoring and to assess whether blinding was maintained. tadalafil blood levels were measured using high performance liquid chromatography/tandem mass spectrometry (NMS Labs Willow Grove, Pa.).

**Q.** For CN1CC(=O)N2[C@H](c3ccc4c(c3)OCO4)c3[nH]c4ccccc4c3C[C@@H]2C1=O [tadalafil], which “peak blood concentration of tadalafil in patient P10 (no sympatholysis)” value (BMD patient P10, 20 mg oral) is on record?
**A.** 300 ng/mL

**Q.** What about the “peak tadalafil blood concentration, mean” value (BMD patients, 20 mg oral) of the same molecule?
**A.** 260 ± 13 ng/mL

**Q.** What about the “peak tadalafil blood concentrations, range” value (BMD patients, 20 mg oral) of the same molecule?
**A.** 170 to 310 ng/mL

From US20160067246A1, “USE OF PHOSPHODIESTERASE 5A INHIBITORS FOR THE TREATMENT OF MUSCULAR DYSTROPHY” (CEDARS-SINAI MEDICAL CENTER, priority 2013, published 2016)
